In one test the target is human DGKα (Homo sapiens, UniProt P23743). Briefly: DGKα Biochemical Activity Assay (ADP-Glo).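 Note: luminescent detection of ADP produced as DGKα phosphorylates DAG to phosphatidic acid, IC50 from four-parameter nonlinear curve fit.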 The following applies: recombinant DGKα 1 nM, 100 μM ATP, 18:1 DAG/POPS/octylglucoside micelles, 1 hour at 25° C.; geometric mean; read-out: HTBS DGKa 1X ATP KM IC50. (In general: ADP-Glo first removes unused ATP, then detects ADP through luciferase.)
Test [1] relates to Jurkat NFκB-luciferase cells. The test can be described thus: Jurkat NFκB-Luciferase Assay. In kind it is cell-based. The following applies: Homo sapiens; Jurkat NFκB-luciferase cells activated with anti-CD3 antibody (OKT3), 2.5 hrs at 37° C.; geometric mean; read-out: DGK NFKb Luciferase EC50. Put shortly: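 Luminescence from One-Glo Ex, read 7 min post-addition, reports NFκB activation in Jurkat luciferase reporter cells. Cells, diluted to 1 million cells/ml in 10% FBS RPMI, were dispensed onto plates holding compound and washed, pre-bound antibody.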

Sequence of human DGKα (P23743 whole entry): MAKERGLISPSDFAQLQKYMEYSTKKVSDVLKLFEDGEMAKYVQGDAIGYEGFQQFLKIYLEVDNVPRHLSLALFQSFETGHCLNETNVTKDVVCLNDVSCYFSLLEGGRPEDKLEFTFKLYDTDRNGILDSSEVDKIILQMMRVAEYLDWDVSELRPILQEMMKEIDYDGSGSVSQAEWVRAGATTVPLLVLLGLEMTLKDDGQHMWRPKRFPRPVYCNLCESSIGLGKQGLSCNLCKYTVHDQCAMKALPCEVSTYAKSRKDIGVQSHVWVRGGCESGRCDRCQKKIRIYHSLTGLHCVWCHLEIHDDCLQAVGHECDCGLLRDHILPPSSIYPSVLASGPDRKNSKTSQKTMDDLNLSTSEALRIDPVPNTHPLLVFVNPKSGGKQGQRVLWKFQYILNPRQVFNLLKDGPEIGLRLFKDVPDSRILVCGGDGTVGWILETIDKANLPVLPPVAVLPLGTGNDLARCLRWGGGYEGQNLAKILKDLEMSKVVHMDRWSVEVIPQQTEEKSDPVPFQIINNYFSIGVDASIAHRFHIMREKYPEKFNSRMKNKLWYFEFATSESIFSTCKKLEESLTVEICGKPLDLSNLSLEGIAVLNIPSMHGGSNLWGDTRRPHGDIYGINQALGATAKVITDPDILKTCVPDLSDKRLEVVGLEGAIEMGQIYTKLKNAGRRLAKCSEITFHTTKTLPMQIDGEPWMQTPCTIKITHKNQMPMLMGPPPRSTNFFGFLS

As a reminder, the IC50 is the concentration that inhibits the measured activity by half. For orientation: EC50 means the concentration needed to bring the measured effect to its halfway point. As for `CC(C)(O)C#Cc1cccc2c1CCCCN2c1nc2nncn2c2c(F)ccc(F)c12` [Example 110], the IC50 at human DGKα amounted to 2.76 nM. The EC50 in test [1] worked out at 9.8 nM.

For the compound `Cc1nnc2nc(N3CCOCc4c(C#CC(C)(C)NC(=O)C(C)(C)C(F)(F)F)cccc43)c3c(F)cccc3n12` [Example 144, 3,3,3-trifluoro-N-(4-(1-(6-fluoro-1-methyl-[1,2,4]triazolo[4,3-a]quinazolin-5-yl)-1,2,3,5-tetrahydrobenzo[e][1,4]oxazepin-6-yl)-2-methylbut-3-yn-2-yl)-2,2-dimethylpropanamide], at human DGKα, the half-inhibitory concentration (IC50) turned out to be 4.73 nM. For the same compound, in test [1], the EC50 worked out at 11.1 nM.

In the case of `Cc1nnc2nc(N3CCOCc4c(C#Cc5cn[nH]c5)cccc43)c3c(F)cccc3n12` [Example 211, 6-((1H-pyrazol-4-yl)ethynyl)-1-(6-fluoro-1-methyl-[1,2,4]triazolo[4,3-a]quinazolin-5-yl)-1,2,3,5-tetrahydrobenzo[e][1,4]oxazepine], the IC50 on human DGKα amounted to 6.35 nM. The EC50 in test [1] is 56.1 nM.

With `CC(C)(C#N)C#Cc1cccc2c1CCCN2c1nc2nncn2c2ccc(F)c(F)c12` [Example 242, 4-[1-(6,7-difluoro-[1,2,4]triazolo[4,3-a]quinazolin-5-yl)-3,4-dihydro-2H-quinolin-5-yl]-2,2-dimethyl-but-3-ynenitrile], the half-inhibitory concentration (IC50) on human DGKα was found to be 3.75 nM. Besides, the EC50 in test [1] was determined as 1.94 nM.

Take `Cc1nnc2nc(N(CC(F)F)c3cc(F)cc(C#CC(C)(C)c4ccncc4)c3)c3c(F)c(F)ccc3n12` [Example 62, N-(2,2-difluoroethyl)-6,7-difluoro-N-(3-fluoro-5-(3-methyl-3-(pyridin-4-yl)but-1-yn-1-yl)phenyl)-1-methyl-[1,2,4]triazolo[4,3-a]quinazolin-5-amine]: at human DGKα, the IC50 was determined as 80.1 nM. Moreover, in test [1], the EC50 was 3.24 nM.

Consider `Cc1nnc2nc(N3CCCc4c(C#CC(C)(C)C(=O)NC5(C(F)(F)F)CC5)cccc43)c3c(F)cccc3n12` [Example 65, 4-(1-(6-fluoro-1-methyl-[1,2,4]triazolo[4,3-a]quinazolin-5-yl)-1,2,3,4-tetrahydroquinolin-5-yl)-2,2-dimethyl-N-(1-(trifluoromethyl)cyclopropyl)but-3-ynamide], for which the IC50 on human DGKα amounted to 189 nM. For the same compound, the EC50 in test [1] came out at 46.7 nM.

Turning to `Cc1nnc2nc(N3CCCc4c(C#CC(C)(C)C#N)cccc43)c3c(Cl)cccc3n12` [Example 125, 4-(1-(6-chloro-1-methyl-[1,2,4]triazolo[4,3-a]quinazolin-5-yl)-1,2,3,4-tetrahydroquinolin-5-yl)-2,2-dimethylbut-3-ynenitrile], the IC50 at human DGKα stood at 16.4 nM. For the same compound, the 50% effective concentration (EC50) in test [1] worked out at 2.9 nM.

As for `Cc1nnc2nc(N3CCCCc4c(C#CC5(C(F)(F)F)CC5)cncc43)c3c(F)c(F)ccc3n12` [Example 9, 6,7-difluoro-1-methyl-5-(6-((1-(trifluoromethyl)cyclopropyl)ethynyl)-2,3,4,5-tetrahydro-1H-pyrido[3,4-b]azepin-1-yl)-[1,2,4]triazolo[4,3-a]quinazoline], the 50% inhibitory concentration (IC50) on human DGKα worked out at 28.5 nM. Moreover, the 50% effective concentration (EC50) in test [1] is 1.53 nM.

For `Cc1nnc2nc(N3CCOCc4c(C#Cc5ccnn5C)cccc43)c3c(F)cccc3n12` [Example 214, 1-(6-fluoro-1-methyl-[1,2,4]triazolo[4,3-a]quinazolin-5-yl)-6-((1-methyl-1H-pyrazol-5-yl)ethynyl)-1,2,3,5-tetrahydrobenzo[e][1,4]oxazepine], the 50% inhibitory concentration (IC50) on human DGKα was 9.08 nM. Moreover, the half-maximal effective concentration (EC50) in test [1] was 3.29 nM.

For `Cc1nnc2nc(N3CCCc4c(C#CC5(C)CC5)cncc43)c3c(F)c(F)ccc3n12` [Example 83, 6,7-difluoro-1-methyl-5-(5-((1-methylcyclopropyl)ethynyl)-3,4-dihydro-1,7-naphthyridin-1(2H)-yl)-[1,2,4]triazolo[4,3-a]quinazoline], at human DGKα, the IC50 is 8.49 nM. Besides, in test [1], the half-maximal effective concentration (EC50) stood at 1.21 nM.

As to `Cc1nnc2nc(N(CC(F)F)c3cc(F)cc(C#CC4(C)COC4)c3)c3cc(F)ccc3n12` [Example 24, N-(2,2-difluoroethyl)-7-fluoro-N-(3-fluoro-5-((3-methyloxetan-3-yl)ethynyl)phenyl)-1-methyl-[1,2,4]triazolo[4,3-a]quinazolin-5-amine], at human DGKα, the IC50 came to 15.1 nM. For the same compound, in test [1], the half-maximal effective concentration (EC50) was 4.7 nM.

As to `Cc1nnc2nc(N(CC(F)F)c3cc(F)cc(C#CC4(C(F)F)CC4)c3)c3c(F)cccc3n12` [Example 25, N-(2,2-difluoroethyl)-N-(3-((1-(difluoromethyl)cyclopropyl)ethynyl)-5-fluorophenyl)-6-fluoro-1-methyl-[1,2,4]triazolo[4,3-a]quinazolin-5-amine], the 50% inhibitory concentration (IC50) at human DGKα turned out to be 30.2 nM. The EC50 in test [1] was 7.37 nM.

As to `Cc1nnc2nc(N3CCOCc4c(C#CC5(C)COC5)cccc43)c3c(F)cccc3n12` [Example 194, 1-(6-Fluoro-1-methyl-[1,2,4]triazolo[4,3-a]quinazolin-5-yl)-6-[2-(3-methyloxetan-3-yl)ethynyl]-3,5-dihydro-2H-4,1-benzoxazepine], at human DGKα, the IC50 was determined as 0.773 nM. The EC50 in test [1] was determined as 1.68 nM.

Regarding `Cc1cccc2c1c(N1CCOCc3c(C#CC(C)(C)C#N)cccc31)nc1nnc(C)n12` [Example 217, 4-(1-(1,6-dimethyl-[1,2,4]triazolo[4,3-a]quinazolin-5-yl)-1,2,3,5-tetrahydrobenzo[e][1,4]oxazepin-6-yl)-2,2-dimethylbut-3-ynenitrile], the IC50 on human DGKα stood at 31.7 nM. In addition, the EC50 in test [1] was 16 nM.

The values are drawn from US11976072B2, “Diacylglycerol kinase modulating compounds” (priority 2021, dated 2024).
